Reference: the NIST ThermoML archive (doi:10.1021/acs.jced.5b01039)
Values joined by “and” are separate entries in the source; they are usually repeats but may differ in a detail not shown here. Identical values can stand only once.

Details: Liquid; for vapor or sublimation pressure: Closed cell (Static) method; for mass density: Pycnometric method

F/C=C\C(F)(F)F [(Z)-1,3,3,3-tetrafluoro-1-propene]
Details	mass density	vapor or sublimation pressure
300 K	1218.6 kg/m3 and 1219.2 kg/m3	185.9 kPa and 186.4 kPa
310 K	1191.2 kg/m3	260.4 kPa and 260.6 kPa
320 K	1162 kg/m3 and 1163.5 kg/m3	355.3 kPa and 355.1 kPa
330 K	1132.5 kg/m3 and 1131.5 kg/m3	473.3 kPa and 473.5 kPa
340 K	1100.2 kg/m3 and 1101.7 kg/m3	619 kPa and 619.2 kPa
350 K	1066.1 kg/m3 and 1067.3 kg/m3	795.2 kPa and 794.7 kPa
360 K	1032.6 kg/m3 and 1032.3 kg/m3	1007.3 kPa
370 K	993 kg/m3 and 993.3 kg/m3	1258.9 kPa and 1258.7 kPa
380 K	951.5 kg/m3 and 949.7 kg/m3	1554.1 kPa and 1556.9 kPa
390 K	900.5 kg/m3 and 901.4 kg/m3	1903.6 kPa and 1903.7 kPa
400 K	843.9 kg/m3 and 843.6 kg/m3	2308.3 kPa and 2308.8 kPa

F/C=C/C(F)(F)F [trans-1,3,3,3-tetrafluoropropene]
Details	mass density	vapor or sublimation pressure
300 K	1157.7 kg/m3 and 1158 kg/m3	526.8 kPa and 526.6 kPa
310 K	1122.8 kg/m3	703.2 kPa and 702.4 kPa
320 K	1085.1 kg/m3	919.6 kPa and 919 kPa
330 K	1045.3 kg/m3 and 1044.7 kg/m3	1182.6 kPa and 1182.3 kPa
340 K	1000.9 kg/m3 and 1001.5 kg/m3	1498.4 kPa and 1498.6 kPa
350 K	950.3 kg/m3 and 950.6 kg/m3	1874 kPa and 1874.1 kPa
360 K	889.8 kg/m3	2318 kPa and 2319.2 kPa
370 K	810.1 kg/m3	2841.4 kPa and 2842.7 kPa
380 K	668.8 kg/m3 and 670.4 kg/m3	3460 kPa and 3461.5 kPa
